Reference: US10759785B2, “Compounds” (ENTERPRISE THERAPEUTICS LIMITED, priority 2016, dated 2020)
Where a name gives a salt, the structure may show the parent alone.

biological target: T1, ENaC (Homo sapiens, UniProt P37088+P51168+P51170); assay: Short circuit current assay to determine ENaC blocker potency in human bronchial epithelial cells; type: cell-based; details: 50% inhibition of total amiloride-sensitive ISC, HBECs, apical addition; read-out: Averages. ENaC Ic50 μm Avg
T1 construct: host or cells: primary human bronchial epithelial cells (HBECs) differentiated at an air-liquid interface
T1 sequence (P37088 1-669): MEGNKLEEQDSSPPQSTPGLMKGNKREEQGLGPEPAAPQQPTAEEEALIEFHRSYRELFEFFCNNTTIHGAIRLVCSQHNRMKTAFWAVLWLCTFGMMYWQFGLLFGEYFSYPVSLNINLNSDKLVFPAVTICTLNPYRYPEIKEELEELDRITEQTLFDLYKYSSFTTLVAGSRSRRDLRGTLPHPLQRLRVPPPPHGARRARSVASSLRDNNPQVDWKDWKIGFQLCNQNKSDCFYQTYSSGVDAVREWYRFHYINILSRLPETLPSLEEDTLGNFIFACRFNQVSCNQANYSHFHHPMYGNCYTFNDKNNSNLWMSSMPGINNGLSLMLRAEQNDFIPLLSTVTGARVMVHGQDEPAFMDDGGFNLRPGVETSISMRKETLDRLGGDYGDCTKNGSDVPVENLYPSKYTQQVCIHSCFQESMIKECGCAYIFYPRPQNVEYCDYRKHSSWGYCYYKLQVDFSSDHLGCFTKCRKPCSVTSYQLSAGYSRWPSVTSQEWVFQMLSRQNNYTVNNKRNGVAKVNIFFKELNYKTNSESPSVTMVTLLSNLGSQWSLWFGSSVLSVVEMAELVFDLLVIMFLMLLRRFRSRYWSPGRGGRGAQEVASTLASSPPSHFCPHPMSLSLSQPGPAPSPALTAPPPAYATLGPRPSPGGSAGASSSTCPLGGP
T1 sequence (P51168 1-640): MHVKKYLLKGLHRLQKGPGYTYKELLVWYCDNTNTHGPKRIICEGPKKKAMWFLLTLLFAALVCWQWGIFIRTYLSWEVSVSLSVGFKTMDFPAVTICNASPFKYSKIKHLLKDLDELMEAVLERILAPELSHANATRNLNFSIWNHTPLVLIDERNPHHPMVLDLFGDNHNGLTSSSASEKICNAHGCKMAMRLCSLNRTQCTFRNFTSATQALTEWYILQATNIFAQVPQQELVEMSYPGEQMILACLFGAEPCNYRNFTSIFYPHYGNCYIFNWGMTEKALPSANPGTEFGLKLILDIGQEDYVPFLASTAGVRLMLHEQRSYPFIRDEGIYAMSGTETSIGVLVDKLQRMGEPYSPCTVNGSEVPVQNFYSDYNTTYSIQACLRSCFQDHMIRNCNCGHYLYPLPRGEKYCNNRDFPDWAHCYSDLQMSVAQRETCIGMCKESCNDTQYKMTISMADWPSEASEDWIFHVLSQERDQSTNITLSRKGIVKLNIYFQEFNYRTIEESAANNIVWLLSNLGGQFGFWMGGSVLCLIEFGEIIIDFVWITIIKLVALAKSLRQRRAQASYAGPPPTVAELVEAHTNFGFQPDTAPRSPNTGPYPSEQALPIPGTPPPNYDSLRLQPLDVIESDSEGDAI
T1 sequence (P51170 1-649): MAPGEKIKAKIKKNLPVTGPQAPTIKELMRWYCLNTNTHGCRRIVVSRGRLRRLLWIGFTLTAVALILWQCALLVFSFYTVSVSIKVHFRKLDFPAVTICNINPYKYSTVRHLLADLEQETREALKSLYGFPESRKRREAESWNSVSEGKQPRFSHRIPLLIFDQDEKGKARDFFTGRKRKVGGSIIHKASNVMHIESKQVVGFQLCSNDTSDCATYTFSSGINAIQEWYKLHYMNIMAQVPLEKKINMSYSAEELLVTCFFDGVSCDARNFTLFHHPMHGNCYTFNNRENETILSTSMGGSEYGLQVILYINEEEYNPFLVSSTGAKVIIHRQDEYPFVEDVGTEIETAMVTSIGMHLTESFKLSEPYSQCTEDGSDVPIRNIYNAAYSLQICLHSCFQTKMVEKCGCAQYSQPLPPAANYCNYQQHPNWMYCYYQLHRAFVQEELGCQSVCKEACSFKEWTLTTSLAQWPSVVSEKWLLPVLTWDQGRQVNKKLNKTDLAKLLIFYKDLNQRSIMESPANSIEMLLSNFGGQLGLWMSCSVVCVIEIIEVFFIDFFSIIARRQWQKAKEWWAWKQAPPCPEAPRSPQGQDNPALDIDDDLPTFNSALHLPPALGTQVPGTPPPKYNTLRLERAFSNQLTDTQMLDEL
Procedure: Example 27—Short Circuit Current Assay to Determine ENaC Blocker Potency in Human Bronchial Epithelial Cells
Human bronchial epithelial cells (HBECs) (Lonza, UK) were cultured using a modification of the method described by Coote et al, (2008). Cells were seeded into plastic T-75 flasks and grown in Bronchial Epithelial Cell Growth Medium (BEGM) (Lonza, UK) supplemented with bovine pituitary extract (52 ng/mL), hydrocortisone (0.5 μg/mL), human recombinant Epidermal Growth Factor (0.5 ng/mL), epinephrine (0.5 ng/mL), transferrin (10 ng/mL), insulin (5 ng/mL), retinoic acid (0.1 ng/mL), triiodothyronine (6.5 ng/mL), gentamycin (50 μg/mL) and amphotericin-B (50 ng/mL). Medium was changed every 48 hours until cells were 90% confluent. Cells were then passaged and seeded (8.25×10^5 cells/insert) onto polycarbonate Snapwell™ inserts (Costar, UK) in differentiation media containing 50% DMEM in BGEM with the same supplements as above but without triiodothyronine and a final retinoic acid concentration of 50 nM (all-trans retinoic acid; Sigma-Aldrich, UK). Cells were maintained submerged for the first 7 days in culture after which time they were exposed to an apical air interface for the remainder of the culture period. From the first day of establishment of an ALI, HBEC were fed with a DMEM:HAMS F-12 (1:1) media containing 2% Ultroser G (Pall BioSepra, France) with gentamycin (50 μg/mL) and amphotericin B (50 ng/mL). Cells were used for short-circuit current assay between days 14-21 after the establishment of the ALI. At all stages of culture, cells were maintained at 37′C in 5% CO2 in an air incubator.
Short-Circuit Current (ISC) Measurements
Snapwell inserts were mounted in Costar Vertical Diffusion Chambers (Costar, UK) and were bathed with continuously gassed Ringer solution (5% CO2 in O2; pH 7.4) maintained at 37° C. containing (in mM): 120 NaCl, 25 NaHCO3, 3.3 KH2PO4, 0.8 K2HPO4, 1.2 CaCl2, 1.2 MgCl2 and 10 glucose. The solution osmolarity was always between 280-300 mOsm/kg H2O for all physiological salt solutions used. Cells were voltage clamped to 0 mV (model EVC4000, WPI). Transepithelial resistance (RT) was measured by applying a 2 mV pulse at 30 s intervals and calculating RT by Ohm's law. Data were recorded using a PowerLab workstation (ADInstruments, UK).
ENaC blocker compounds were added to the apical chamber from a 1000-fold stock solution (prepared in DMSO) to achieve a cumulative concentration response in terms of the inhibition of the basal ISC. At the completion of the concentration response, a supra-maximal concentration of amiloride (10 μM) was added. The concentration of test compound that induced a 50% inhibition of the total amiloride-sensitive ISC (IC50) was calculated using GraphPad Prism v6.05.

Compound | IC50
CCn1c(CNC(=O)c2nc(C#N)cnc2N)[n+](CC)c2ccc(OC)cc21 [Example 26, 2-{[(3-amino-6-cyanopyrazin-2-yl)formamido]methyl}-1,3-diethyl-6-methoxy-1H-1,3-benzodiazol-3-ium formate] | 8 nM
CCn1c(CNC(=O)c2nc(Br)cnc2N)[n+](CC)c2ccc(C(=O)OC)cc21.[I-] [Example 15, 2-{[(3-amino-6-bromopyrazin-2-yl)formamido]methyl}-1,3-diethyl-6-(methoxycarbonyl)-1H-1,3-benzodiazol-3-ium iodide] | 2 nM
CCn1c(CNC(=O)c2nc(Cl)cnc2N)[n+](C)c2ccc(OC)cc21.[I-] [Example 5, 2-{[(3-amino-6-chloropyrazin-2-yl)formamido]methyl}-1-ethyl-6-methoxy-3-methyl-1H-1,3-benzodiazol-3-ium iodide] | 2 nM
CCn1c(CNC(=O)c2nc(Br)cnc2N)[n+](CC)c2ccc(-c3cnn(C4CCN(C(=O)OC(C)(C)C)CC4)c3)cc21.[I-] [Example 20, 2-{[(3-amino-6-bromopyrazin-2-yl)formamido]methyl}-6-(1-{1-[(tert-butoxy)carbonyl]piperidin-4-yl}-1H-pyrazol-4-yl)-1,3-diethyl-1H-1,3-benzodiazol-3-ium iodide] | 1 nM
CCc1cnc(N)c(C(=O)NCc2n(CC)c3cc(OC)ccc3[n+]2C)n1.[I-] [Example 8, 2-{[(3-amino-6-ethylpyrazin-2-yl)formamido]methyl}-1-ethyl-6-methoxy-3-methyl-1H-1,3-benzodiazol-3-ium iodide] | 224 nM
CCn1c(CNC(=O)c2nc(Br)cnc2N)[n+](CC)c2ccc(OCCN)cc21.Cl.[Cl-] [Example 25, 2-{[(3-Amino-6-bromopyrazin-2-yl)formamido]methyl}-6-(2-aminoethoxy)-1,3-diethyl-1H-1,3-benzodiazol-3-ium hydrochloride chloride] | 2 nM
CCn1c(CNC(=O)c2nc(Br)cnc2N)[n+](Cc2ccccc2)c2ccc(C(F)(F)F)cc21.O=C[O-] [Example 19, 2-{[(3-Amino-6-bromopyrazin-2-yl)formamido]methyl}-3-benzyl-1-ethyl-6-(trifluoromethyl)-1H-1,3-benzodiazol-3-ium formate] | 4 nM
CCn1c(CNC(=O)c2nc(Br)cnc2N)[n+](CC)c2ccc(OCCNC(=O)OC(C)(C)C)cc21.O=C[O-] [Example 24, 2-{[(3-amino-6-bromopyrazin-2-yl)formamido]methyl}-6-(2-{[(tert-butoxy)carbonyl]amino}ethoxy)-1,3-diethyl-1H-1,3-benzodiazol-3-ium formate] | 2 nM
CCn1c(CNC(=O)c2nc(Br)cnc2N)[n+](C)c2ccc(Cl)cc21.O=CO.O=C[O-] [Example 11, 2-{[(3-amino-6-bromopyrazin-2-yl)formamido]methyl}-6-chloro-1-ethyl-3-methyl-1H-1,3-benzodiazol-3-ium formic acid formate] | 2 nM
CCn1c(CNC(=O)c2nc(Br)cnc2N)[n+](CCOCCOCCO)c2ccc(OC)cc21.O=C[O-] [Example 4, 2-{[(3-amino-6-bromopyrazin-2-yl)formamido]methyl}-1-ethyl-3-{2-[2-(2-hydroxyethoxy)ethoxy]ethyl}-6-methoxy-1H-1,3-benzodiazol-3-ium formate] | 4 nM
CCn1c(CNC(=O)c2nc(Br)cnc2N)[n+](CC)c2ccc(OC)cc21.O=C[O-] [Example 2, 2-{[(3-amino-6-bromopyrazin-2-yl)formamido]methyl}-1,3-diethyl-6-methoxy-1H-1,3-benzodiazol-3-ium formate] | 1 nM
CCn1c(CNC(=O)c2nc(Br)cnc2N)[n+](CC)c2ccc(C(=O)N[C@@H]3CCOC3=O)cc21 [Example 17, 2-{[(3-amino-6-bromopyrazin-2-yl)formamido]methyl}-1,3-diethyl-6-{[(3R)-2-oxooxolan-3-yl]carbamoyl}-1H-1,3-benzodiazol-3-ium formate] | 3 nM
CCn1c(CNC(=O)c2nc(Br)cnc2N)[n+](CCO)c2ccc(OC)cc21.O=C[O-] [Example 3, 2-{[(3-amino-6-bromopyrazin-2-yl)formamido]methyl}-1-ethyl-3-(2-hydroxyethyl)-6-methoxy-1H-1,3-benzodiazol-3-ium formate] | 1 nM
CCn1c(CNC(=O)c2nc(Br)cnc2N)[n+](CC)c2ccc(-c3cnn(C4CCNCC4)c3)cc21.Cl.[I-] [Example 21, 2-{[(3-amino-6-bromopyrazin-2-yl)formamido]methyl}-1,3-diethyl-6-[1-(piperidin-4-yl)-1H-pyrazol-4-yl]-1H-1,3-benzodiazol-3-ium hydrochloride iodide] | 1 nM
CCn1c(CNC(=O)c2nc(Br)cnc2N)[n+](C)c2ccc(OC(F)(F)F)cc21.O=C[O-] [Example 14, 2-{[(3-amino-6-bromopyrazin-2-yl)formamido]methyl}-1-ethyl-3-methyl-6-(trifluoromethoxy)-1H-1,3-benzodiazol-3-ium formate] | 3 nM
CCn1c(CNC(=O)c2nc(Br)cnc2N)[n+](C)c2ccc(F)cc21.O=C[O-] [Example 12, 2-{[(3-amino-6-bromopyrazin-2-yl)formamido]methyl}-1-ethyl-6-fluoro-3-methyl-1H-1,3-benzodiazol-3-ium formate] | 19 nM
